Measurements: ChEMBL document CHEMBL5360622, “Leucettinibs, a Class of DYRK/CLK Kinase Inhibitors Inspired by the Marine Sponge Natural Product Leucettamine B” (J Med Chem, 2023)

What was measured:
[1] = molecular target: T1, Casein kinase I isoform epsilon (Homo sapiens, UniProt P49674); conditions: dose 10.0 µM
Target sequence in this assay (P49674 whole entry, looked up, canonical isoform): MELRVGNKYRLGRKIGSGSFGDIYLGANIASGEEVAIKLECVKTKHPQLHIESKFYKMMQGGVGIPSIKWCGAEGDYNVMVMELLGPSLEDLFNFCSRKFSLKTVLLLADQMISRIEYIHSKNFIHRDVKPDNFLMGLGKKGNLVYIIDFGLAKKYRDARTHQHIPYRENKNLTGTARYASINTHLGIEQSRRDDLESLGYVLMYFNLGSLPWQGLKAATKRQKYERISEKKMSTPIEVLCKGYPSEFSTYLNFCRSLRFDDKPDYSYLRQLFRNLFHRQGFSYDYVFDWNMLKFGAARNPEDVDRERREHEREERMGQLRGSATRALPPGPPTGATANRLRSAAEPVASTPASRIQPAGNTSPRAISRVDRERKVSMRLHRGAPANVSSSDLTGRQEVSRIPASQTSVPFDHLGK

[2] = molecular target: Casein kinase I isoform delta (Homo sapiens) (UniProt P48730); conditions: dose 10.0 µM
[3] = molecular target: T2, Dual specificity protein kinase CLK1 (Homo sapiens, UniProt P49759); conditions: dose 10.0 µM
Target sequence in this assay (P49759 whole entry, looked up): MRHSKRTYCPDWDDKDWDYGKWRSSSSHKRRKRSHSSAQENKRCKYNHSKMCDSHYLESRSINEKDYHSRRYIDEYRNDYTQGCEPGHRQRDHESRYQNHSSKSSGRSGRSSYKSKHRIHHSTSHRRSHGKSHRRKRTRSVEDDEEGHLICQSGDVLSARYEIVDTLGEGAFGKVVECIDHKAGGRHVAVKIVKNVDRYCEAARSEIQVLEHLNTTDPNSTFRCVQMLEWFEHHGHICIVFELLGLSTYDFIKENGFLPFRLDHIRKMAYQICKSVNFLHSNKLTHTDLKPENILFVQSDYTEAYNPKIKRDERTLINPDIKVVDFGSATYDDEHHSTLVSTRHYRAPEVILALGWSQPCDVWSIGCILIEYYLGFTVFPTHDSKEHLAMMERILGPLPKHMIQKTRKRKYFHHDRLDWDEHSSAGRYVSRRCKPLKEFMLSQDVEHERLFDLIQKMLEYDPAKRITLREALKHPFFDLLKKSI

[4] = molecular target: T3, Dual specificity protein kinase CLK3 (Homo sapiens, UniProt P49761); conditions: dose 10.0 µM
Target sequence in this assay (P49761 whole entry, looked up): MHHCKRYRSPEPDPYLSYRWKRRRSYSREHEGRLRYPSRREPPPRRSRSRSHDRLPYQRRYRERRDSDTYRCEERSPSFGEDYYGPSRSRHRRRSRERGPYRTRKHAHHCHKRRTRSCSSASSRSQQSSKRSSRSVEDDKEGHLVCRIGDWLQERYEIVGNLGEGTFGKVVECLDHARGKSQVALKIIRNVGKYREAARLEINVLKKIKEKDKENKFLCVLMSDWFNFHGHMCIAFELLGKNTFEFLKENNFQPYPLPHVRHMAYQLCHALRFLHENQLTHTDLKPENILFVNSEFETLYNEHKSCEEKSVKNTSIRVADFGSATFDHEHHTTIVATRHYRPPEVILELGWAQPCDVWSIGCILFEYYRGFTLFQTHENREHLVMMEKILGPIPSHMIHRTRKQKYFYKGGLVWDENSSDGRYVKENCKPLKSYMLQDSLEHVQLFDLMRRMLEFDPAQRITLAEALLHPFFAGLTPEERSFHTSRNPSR

[5] = molecular target: T4, Mitogen-activated protein kinase 15 (Homo sapiens) (UniProt Q8TD08); conditions: dose 10.0 µM
T4 sequence (whole entry): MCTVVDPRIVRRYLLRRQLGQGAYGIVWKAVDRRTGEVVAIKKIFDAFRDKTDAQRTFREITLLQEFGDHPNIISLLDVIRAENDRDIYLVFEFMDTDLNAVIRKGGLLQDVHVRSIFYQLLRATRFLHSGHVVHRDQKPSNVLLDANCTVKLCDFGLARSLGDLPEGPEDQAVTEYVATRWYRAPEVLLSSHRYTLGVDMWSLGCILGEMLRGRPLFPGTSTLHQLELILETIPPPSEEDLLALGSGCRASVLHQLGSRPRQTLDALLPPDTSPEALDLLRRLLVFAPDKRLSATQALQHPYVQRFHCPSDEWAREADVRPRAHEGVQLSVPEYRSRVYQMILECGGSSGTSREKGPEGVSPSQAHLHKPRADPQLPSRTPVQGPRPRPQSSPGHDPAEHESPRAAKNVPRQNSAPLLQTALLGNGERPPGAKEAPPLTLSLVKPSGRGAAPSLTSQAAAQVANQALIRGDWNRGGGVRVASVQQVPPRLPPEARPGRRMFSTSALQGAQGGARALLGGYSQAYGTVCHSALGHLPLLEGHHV

[6] = molecular target: Serine/threonine-protein kinase pim-3 (Homo sapiens) (UniProt Q86V86); conditions: dose 10.0 µM
[7] = molecular target: Homeodomain-interacting protein kinase 2 (Homo sapiens) (UniProt Q9H2X6); conditions: dose 10.0 µM
[8] = molecular target: Dual specificity tyrosine-phosphorylation-regulated kinase 2 (Homo sapiens) (UniProt Q92630); conditions: dose 10.0 µM
[9] = molecular target: Calcium/calmodulin-dependent protein kinase kinase 2 (Homo sapiens) (UniProt Q96RR4); conditions: dose 10.0 µM
[10] = molecular target: BMP-2-inducible protein kinase (Homo sapiens) (UniProt Q9NSY1); conditions: dose 10.0 µM
[11] = molecular target: Casein kinase II subunit alpha (Homo sapiens) (UniProt P68400); conditions: dose 10.0 µM
[12] = molecular target: Serine/threonine-protein kinase haspin (Homo sapiens) (UniProt Q8TF76); conditions: dose 10.0 µM
[13] = molecular target: Aurora kinase A (Homo sapiens) (UniProt O14965); conditions: dose 10.0 µM
[14] = molecular target: T5, Glycogen synthase kinase-3 beta (Homo sapiens, UniProt P49841); conditions: dose 10.0 µM
[15] = molecular target: AP2-associated protein kinase 1 (Homo sapiens) (UniProt Q2M2I8); conditions: dose 10.0 µM
[16] = molecular target: Myotonin-protein kinase (Homo sapiens) (UniProt Q09013); conditions: dose 10.0 µM
[17] = molecular target: T1, Casein kinase I isoform epsilon
[18] = molecular target: Cyclin-dependent kinase 5/CDK5 activator 1 (Homo sapiens, UniProt Q00535); type: cell-based, Sf9
[19] = molecular target: T2, Dual specificity protein kinase CLK1; type: cell-based, Sf9
[20] = molecular target: Dual specificity protein kinase CLK2 (Homo sapiens, UniProt P49760)
[21] = molecular target: T3, Dual specificity protein kinase CLK3; type: cell-based, Sf9
[22] = molecular target: Dual specificity protein kinase CLK4 (Homo sapiens, UniProt Q9HAZ1)
[23] = molecular target: T6, Dual specificity tyrosine-phosphorylation-regulated kinase 2 (Homo sapiens, UniProt Q92630)
T6 sequence (Q92630 whole entry): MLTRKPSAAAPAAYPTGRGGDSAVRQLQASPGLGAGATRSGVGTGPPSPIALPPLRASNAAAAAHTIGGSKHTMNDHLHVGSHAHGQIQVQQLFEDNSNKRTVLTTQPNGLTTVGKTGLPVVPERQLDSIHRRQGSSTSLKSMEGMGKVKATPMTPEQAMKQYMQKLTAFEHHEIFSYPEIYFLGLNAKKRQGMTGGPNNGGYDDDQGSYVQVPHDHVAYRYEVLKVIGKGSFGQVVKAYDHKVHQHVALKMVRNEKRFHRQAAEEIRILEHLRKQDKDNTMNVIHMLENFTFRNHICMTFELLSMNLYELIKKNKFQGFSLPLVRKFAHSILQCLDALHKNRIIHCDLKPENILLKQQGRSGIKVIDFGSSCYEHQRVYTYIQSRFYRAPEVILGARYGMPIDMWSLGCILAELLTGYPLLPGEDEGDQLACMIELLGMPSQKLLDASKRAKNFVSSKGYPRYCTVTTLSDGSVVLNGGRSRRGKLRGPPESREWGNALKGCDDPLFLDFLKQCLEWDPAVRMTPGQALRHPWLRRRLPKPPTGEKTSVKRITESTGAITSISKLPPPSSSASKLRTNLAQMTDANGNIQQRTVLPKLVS

[24] = molecular target: T7, Dual specificity tyrosine-phosphorylation-regulated kinase 3 (Homo sapiens, UniProt O43781)
T7 sequence (O43781 whole entry): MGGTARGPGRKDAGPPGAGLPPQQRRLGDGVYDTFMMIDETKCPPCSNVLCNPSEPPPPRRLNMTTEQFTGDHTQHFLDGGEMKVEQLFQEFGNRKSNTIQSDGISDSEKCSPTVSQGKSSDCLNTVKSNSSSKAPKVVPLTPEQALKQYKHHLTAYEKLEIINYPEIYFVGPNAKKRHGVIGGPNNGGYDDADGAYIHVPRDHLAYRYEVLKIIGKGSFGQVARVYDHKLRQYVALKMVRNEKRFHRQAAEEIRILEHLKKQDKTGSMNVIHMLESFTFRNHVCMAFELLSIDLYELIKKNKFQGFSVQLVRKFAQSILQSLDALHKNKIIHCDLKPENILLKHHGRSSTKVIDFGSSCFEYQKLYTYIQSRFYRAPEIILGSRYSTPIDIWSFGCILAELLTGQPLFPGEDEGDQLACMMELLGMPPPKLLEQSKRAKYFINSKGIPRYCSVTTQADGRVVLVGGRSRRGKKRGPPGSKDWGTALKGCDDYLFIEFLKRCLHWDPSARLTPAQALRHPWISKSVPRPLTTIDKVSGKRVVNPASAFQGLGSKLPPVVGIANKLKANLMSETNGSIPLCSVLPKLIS

[25] = molecular target: T8, Dual specificity tyrosine-phosphorylation-regulated kinase 4 (Homo sapiens, UniProt Q9NR20)
T8 sequence (Q9NR20 whole entry): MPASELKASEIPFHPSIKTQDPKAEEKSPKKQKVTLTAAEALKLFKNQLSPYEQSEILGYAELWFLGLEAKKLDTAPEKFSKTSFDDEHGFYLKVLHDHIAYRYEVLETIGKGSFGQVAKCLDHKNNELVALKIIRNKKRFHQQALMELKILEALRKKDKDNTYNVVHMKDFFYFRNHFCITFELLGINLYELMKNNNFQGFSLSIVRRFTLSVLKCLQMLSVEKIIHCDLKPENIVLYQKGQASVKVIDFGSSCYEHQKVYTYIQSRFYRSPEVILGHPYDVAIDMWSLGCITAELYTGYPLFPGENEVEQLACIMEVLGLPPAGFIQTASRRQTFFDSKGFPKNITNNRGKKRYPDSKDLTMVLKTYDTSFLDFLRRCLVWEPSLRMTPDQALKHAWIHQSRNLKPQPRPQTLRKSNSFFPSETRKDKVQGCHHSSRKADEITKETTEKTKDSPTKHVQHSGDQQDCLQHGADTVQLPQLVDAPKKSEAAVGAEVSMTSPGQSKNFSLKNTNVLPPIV

[26] = molecular target: T5, Glycogen synthase kinase-3 beta; type: cell-based, Sf9
[27] = molecular target: Dual specificity tyrosine-phosphorylation-regulated kinase 1A (Homo sapiens, UniProt Q13627)

Chain of Homeodomain-interacting protein kinase 2 (Homo sapiens) (Q9H2X6 whole entry, looked up): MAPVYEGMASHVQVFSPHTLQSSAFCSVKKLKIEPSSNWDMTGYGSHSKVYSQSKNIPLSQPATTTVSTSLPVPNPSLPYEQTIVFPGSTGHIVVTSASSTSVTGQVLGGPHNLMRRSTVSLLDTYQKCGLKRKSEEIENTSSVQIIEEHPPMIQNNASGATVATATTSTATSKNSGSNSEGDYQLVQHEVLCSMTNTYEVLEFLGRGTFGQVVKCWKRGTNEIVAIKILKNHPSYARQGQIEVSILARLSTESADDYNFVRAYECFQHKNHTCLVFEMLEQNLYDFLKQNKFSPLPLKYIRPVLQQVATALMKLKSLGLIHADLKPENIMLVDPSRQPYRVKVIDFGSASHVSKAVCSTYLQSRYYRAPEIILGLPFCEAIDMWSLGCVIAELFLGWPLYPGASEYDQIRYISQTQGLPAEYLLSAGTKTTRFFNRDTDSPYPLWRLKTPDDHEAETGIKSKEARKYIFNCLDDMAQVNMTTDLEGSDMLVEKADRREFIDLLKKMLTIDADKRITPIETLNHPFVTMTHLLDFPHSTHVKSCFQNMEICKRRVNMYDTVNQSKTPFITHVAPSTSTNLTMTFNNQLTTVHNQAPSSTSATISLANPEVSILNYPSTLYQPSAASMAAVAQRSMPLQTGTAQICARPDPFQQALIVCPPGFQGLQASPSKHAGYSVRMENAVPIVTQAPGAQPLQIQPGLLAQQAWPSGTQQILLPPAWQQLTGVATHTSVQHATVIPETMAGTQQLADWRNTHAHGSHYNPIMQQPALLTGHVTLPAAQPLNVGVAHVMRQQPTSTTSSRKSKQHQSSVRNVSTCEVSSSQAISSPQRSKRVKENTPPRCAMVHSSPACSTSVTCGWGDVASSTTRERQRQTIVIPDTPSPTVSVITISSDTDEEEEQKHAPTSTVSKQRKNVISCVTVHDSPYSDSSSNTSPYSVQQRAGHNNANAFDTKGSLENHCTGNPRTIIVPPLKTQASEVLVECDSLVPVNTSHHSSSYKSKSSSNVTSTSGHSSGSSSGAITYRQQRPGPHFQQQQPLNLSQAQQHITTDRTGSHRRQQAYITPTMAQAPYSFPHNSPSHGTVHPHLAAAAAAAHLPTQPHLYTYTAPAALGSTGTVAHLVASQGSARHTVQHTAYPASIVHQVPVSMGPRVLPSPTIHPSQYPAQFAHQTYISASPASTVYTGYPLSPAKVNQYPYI
Chain of Casein kinase I isoform delta (Homo sapiens) (P48730 whole entry, looked up, canonical isoform): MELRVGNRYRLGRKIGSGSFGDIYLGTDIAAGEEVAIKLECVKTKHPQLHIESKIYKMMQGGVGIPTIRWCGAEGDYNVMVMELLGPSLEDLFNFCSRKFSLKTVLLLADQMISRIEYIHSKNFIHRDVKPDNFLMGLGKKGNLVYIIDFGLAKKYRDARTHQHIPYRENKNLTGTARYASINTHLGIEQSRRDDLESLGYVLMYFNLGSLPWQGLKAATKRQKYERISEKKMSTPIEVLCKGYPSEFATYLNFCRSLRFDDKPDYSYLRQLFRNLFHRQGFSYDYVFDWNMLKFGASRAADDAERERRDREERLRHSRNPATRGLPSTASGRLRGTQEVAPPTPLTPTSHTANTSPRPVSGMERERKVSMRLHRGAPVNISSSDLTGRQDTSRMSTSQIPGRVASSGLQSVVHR
Chain of Myotonin-protein kinase (Homo sapiens) (Q09013 whole entry, canonical isoform): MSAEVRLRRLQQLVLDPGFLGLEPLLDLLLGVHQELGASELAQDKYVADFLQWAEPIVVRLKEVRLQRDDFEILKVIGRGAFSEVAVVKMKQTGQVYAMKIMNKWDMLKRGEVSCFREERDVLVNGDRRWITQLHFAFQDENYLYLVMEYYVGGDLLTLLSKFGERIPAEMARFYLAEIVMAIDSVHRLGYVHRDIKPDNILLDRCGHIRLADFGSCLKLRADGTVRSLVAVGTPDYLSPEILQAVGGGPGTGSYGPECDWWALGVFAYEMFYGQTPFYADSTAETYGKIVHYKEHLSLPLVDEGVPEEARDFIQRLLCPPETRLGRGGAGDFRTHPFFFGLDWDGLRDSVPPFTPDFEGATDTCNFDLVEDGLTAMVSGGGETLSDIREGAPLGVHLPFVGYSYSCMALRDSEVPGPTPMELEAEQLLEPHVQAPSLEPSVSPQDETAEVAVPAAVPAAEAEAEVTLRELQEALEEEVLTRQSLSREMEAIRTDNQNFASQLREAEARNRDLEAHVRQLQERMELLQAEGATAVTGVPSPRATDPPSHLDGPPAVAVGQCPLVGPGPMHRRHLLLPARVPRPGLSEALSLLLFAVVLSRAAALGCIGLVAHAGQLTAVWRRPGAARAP
Chain of Aurora kinase A (Homo sapiens) (O14965 whole entry): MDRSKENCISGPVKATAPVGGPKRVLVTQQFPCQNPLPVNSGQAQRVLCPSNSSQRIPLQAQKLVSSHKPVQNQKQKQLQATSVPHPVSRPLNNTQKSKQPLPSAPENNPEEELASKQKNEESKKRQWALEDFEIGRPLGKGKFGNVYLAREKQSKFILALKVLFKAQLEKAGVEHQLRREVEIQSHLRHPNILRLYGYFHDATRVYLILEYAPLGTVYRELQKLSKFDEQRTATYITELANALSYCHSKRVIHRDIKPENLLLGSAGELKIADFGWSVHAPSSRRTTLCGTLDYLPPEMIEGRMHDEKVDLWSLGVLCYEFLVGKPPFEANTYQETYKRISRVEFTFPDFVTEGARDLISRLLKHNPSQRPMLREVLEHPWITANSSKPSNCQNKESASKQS
Chain of Dual specificity protein kinase CLK2 (P49760 whole entry): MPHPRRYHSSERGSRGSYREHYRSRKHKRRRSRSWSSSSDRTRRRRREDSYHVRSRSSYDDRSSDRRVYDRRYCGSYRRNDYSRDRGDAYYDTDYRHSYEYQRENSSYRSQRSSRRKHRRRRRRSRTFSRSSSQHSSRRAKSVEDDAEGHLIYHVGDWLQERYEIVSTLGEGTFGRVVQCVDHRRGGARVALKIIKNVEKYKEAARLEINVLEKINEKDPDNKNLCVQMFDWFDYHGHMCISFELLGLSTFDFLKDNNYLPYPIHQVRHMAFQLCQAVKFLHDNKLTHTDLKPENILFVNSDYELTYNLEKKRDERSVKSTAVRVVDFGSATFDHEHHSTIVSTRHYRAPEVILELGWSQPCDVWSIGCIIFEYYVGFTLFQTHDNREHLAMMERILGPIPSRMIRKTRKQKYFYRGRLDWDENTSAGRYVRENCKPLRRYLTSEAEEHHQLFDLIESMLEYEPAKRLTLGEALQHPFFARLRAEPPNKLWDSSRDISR

## Nc1nccc(-c2c(-c3ccc(F)cc3)ncn2C2CCCCC2)n1
[1]
  ΔTm: 8 °C
[2]
  ΔTm: 9 °C

## CN1CCN(C(=O)C(C)(C)c2ccc(C(=O)Nc3cn4cc(-c5ccncc5)ccc4n3)cc2)CC1
[3]
  ΔTm: 15.7 °C
[4]
  ΔTm: 15 °C

## CN[C@@H]1C[C@H]2O[C@@](C)([C@@H]1OC)n1c3ccccc3c3c4c(c5c6ccccc6n2c5c31)C(=O)NC4
[5]
  ΔTm: 14 °C
[6]
  ΔTm: 11.9 °C
[7]
  ΔTm: 4.5 °C

## O=C1NC(NC23CC4CC(CC(C4)C2)C3)=N/C1=C\c1ccc2ncsc2c1
[3]
  ΔTm: 19.9 °C
[8]
  ΔTm: 12.4 °C
[5]
  ΔTm: 10.3 °C
[9]
  ΔTm: 10.2 °C
[10]
  ΔTm: 9.8 °C
[11]
  ΔTm: 9.7 °C
[4]
  ΔTm: 9.7 °C
[12]
  ΔTm: 7.6 °C
[13]
  ΔTm: 7.5 °C
[14]
  ΔTm: 6.5 °C
[15]
  ΔTm: 6.1 °C
[16]
  ΔTm: 5.6 °C
[1]
  ΔTm: 5.5 °C
[6]
  ΔTm: 5.5 °C
[7]
  ΔTm: 5.2 °C
[2]
  ΔTm: 5 °C

## O=C1NC(NC2CCCCCC2)=N/C1=C\c1ccc2c(c1)OCO2
[17]
  IC50: > 10000 nM
[18]
  IC50: > 10000 nM
[19]
  IC50: 42 nM
[20]
  IC50: 826 nM
[21]
  IC50: 4440 nM
[22]
  IC50: 20 nM
[23]
  IC50: 5080 nM
[24]
  IC50: 3190 nM
[25]
  IC50: 1230 nM
[26]
  IC50: > 10000 nM
[27]
  IC50: 47 nM
